The experiment has as its target T1, PD brain-derived a-synuclein aggregates (Homo sapiens, UniProt P37840).
T1 construct: from tissue; host or cells: frozen brain tissue of PD donors, 1% sarkosyl-insoluble pellet
The experiment in a line: Micro-radiobinding competition assay against a-syn reference on PD brain-derived insoluble fraction. The class given is binding. The settings on record: against [3H]-reference a-syn compound. The method, then:
The procedure was adapted from the protocol described in Spillantini et al., 1998. Frozen tissue blocks from PD donors were thawed on ice and homogenized using a glass dounce homogenizer. The homogenate was then centrifuged at 11,000×g (12,700 RPM) in an ultracentrifuge (Beckman, XL100K) for 20 minutes at 4° C. using a pre-cooled 70.1 rotor (Beckman, 342184). Pellets were resuspended in extraction buffer [10 mM Tris-HCl pH 7.4, 10% sucrose, […], 1% protease inhibitor (Calbiochem 539131), 1 mM EGTA, 1% phosphatase inhibitor (Sigma P5726 and P0044)] and centrifuged at 15,000×g (14,800 RPM, a 70.1 Ti rotor) for 20 minutes at 4° C. […]
PD brain-derived a-synuclein aggregates and AD brain-derived Tau PHF aggregates were spotted onto microarray slides. […] Quantification of signal was performed by using the image analysis software Beamage (ai4R). Non-specific signal was determined with an excess of non-radiolabelled compound (2 μM) and specific binding was calculated by subtracting the non-specific signal from the total signal. Competition was calculated as percentage, where 0% was defined as the specific binding in the presence of vehicle and 100% as the values obtained in the presence of excess of the non-radiolabelled a-syn reference compound. Ki values were calculated in GraphPad Prism7 by applying a nonlinear regression curve fit using a one site, specific binding model. […]

This passage reports Ki results from patent US20260103474A1, “NOVEL COMPOUNDS FOR THE DIAGNOSIS OF TDP-43 PROTEINOPATHIES” (AC IMMUNE SA, priority 2022, published 2026).

As a reminder, the Ki is the dissociation constant of the complex between target and ligand, obtained from inhibition or displacement. Read a low Ki as tighter binding. Turning to `O=C1c2sc(-c3ccc(N4CC[C@@H](F)C4)nc3F)nc2CCN1c1cccnc1` [Compound 1, 2-[2-fluoro-6-[(3R)-3-fluoropyrrolidin-1-yl]-3-pyridyl]-5-(3-pyridyl)-6,7-dihydrothiazolo[5,4-c]pyridin-4-one], the Ki is greater than 500 nM.
